Reference: paper PMC7876106 (Scientific Reports, 2021)

Key:
Format in all cases: binding
TERRA = test: FP assay, FITC labeled TRF2 peptide with TERRA; conditions: 10 nM FITC peptide
Description: (§1) All the nucleic acids, peptides and chemicals were dissolved in buffer containing 20 mM HEPES pH7.5, 150 mM salt (KCl, NaCl, LiCl) at the stock concentration of 1 mM. For peptide and nucleic acid interactions, 25μL of each nucleic acids with a sequential twofold dilutions starting from 50 μM was added into each well of 96-well plate followed by adding 25μL of 10 nM FITC labeled TRF2 peptide. For compounds and nucleic acid interactions, 20μL of each compounds with a sequential twofold dilutions starting from 50 μM were added into each well of 96-well plate followed by adding 5μL of 20 ng/mL tRNA and 25μL of 10 nM FAM labeled nucleic acids. For inhibition assay, 5μL FITC labeled TRF2 GAR peptide (10 nM final concentration) and 10 μL oligos (5 μM final concentration) were mixed, followed by adding 5μL of each compound with a sequential twofold dilutions starting from 50 μM into each well of 384-well plate. All components were mixed thoroughly, and the plate was incubated at room temperature for 1 h before placing in an Envision Plate Reader for reading at 495/520 nm. All data curves were fitted using Prism 8.0.

TeloDNA = test: FP assay, FITC labeled TRF2 peptide with TeloDNA; conditions: 10 nM FITC peptide
Description: as §1

antisense TERRA [1] = test: FP assay, FITC labeled TRF2 peptide with antisense TERRA; conditions: 10 nM FITC peptide
Description: as §1

antisense TeloDNA [2] = test: FP assay, FITC labeled TRF2 peptide with antisense TeloDNA; conditions: 10 nM FITC peptide
Description: as §1

antisense TERRA [3] = test: FP assay, full-length TRF2 protein with FAM labeled antisense TERRA; conditions: FAM labeled oligo
antisense TeloDNA [4] = test: FP assay, full-length TRF2 protein with FAM labeled antisense TeloDNA; conditions: FAM labeled oligo

| Substance | peptide binding to TERRA (TERRA) | peptide binding to TeloDNA (TeloDNA) | peptide binding to antisense TERRA (antisense TERRA [1]) | peptide binding to antisense TeloDNA (antisense TeloDNA [2]) | EC50 (TERRA; read-out: EC50 (affinity), peptide binding to TERRA) | EC50 (TeloDNA; read-out: EC50 (affinity), peptide binding to TeloDNA) | full-length TRF2 affinity for antisense TERRA (antisense TERRA [3]) | full-length TRF2 affinity for antisense TeloDNA (antisense TeloDNA [4]) |
| --- | --- | --- | --- | --- | --- | --- | --- | --- |
| AAAGAAASASSGAAAAGAHEPGLGGPAEAGAGEAA [Ala mutant, control peptide with each of the 10 arginine residues mutated to alanine] | no detectable binding | no detectable binding | Neither TRF2 GAR nor the Ala mutant showed any detectable binding | Neither TRF2 GAR nor the Ala mutant showed any detectable binding | – | – | – | – |
| RAAGRRASRSSGRARRGRHEPGLGGPAERGAGEAR [TRF2 GAR, 35-residue peptide containing the GAR domain of TRF2] | – | – | Neither TRF2 GAR nor the Ala mutant showed any detectable binding | Neither TRF2 GAR nor the Ala mutant showed any detectable binding | 2.7 µM | 8.9 µM | – | – |
| full-length TRF2 protein: purified recombinant full-length TRF2 protein | – | – | – | – | – | – | lacks measurable affinity | lacks measurable affinity |
